Data from patent US20100216779A1 (GLAXOSMITHKLINE LLC, priority 2007, published 2010).
pIC50: −log10 of the molar value.

Tests used:
COLO205 (colon) = assay: Inhibition of cell proliferation, CellTiter-Glo, COLO205; format: cell-based; settings: Homo sapiens, COLO 205, 72 h
Summary of the method: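 Exponentially growing COLO205 cells in medium with 10% FBS were plated below 2000 cells/well at 37 °C, 5% CO2. Untreated wells served as controls.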

[1] = biological target: T1, IR (NIH-3T3 cells over expressing human IGF-1R or IR) (Homo sapiens, UniProt P06213); assay: IR cellular autophosphorylation (DELFIA); format: cell-based; settings: NIH-3T3 cells over expressing IR, insulin stimulated
T1 construct: expressed in transfected cells; host or cells: NIH-3T3 (mouse fibroblasts)
T1 sequence (P06213 28-1382): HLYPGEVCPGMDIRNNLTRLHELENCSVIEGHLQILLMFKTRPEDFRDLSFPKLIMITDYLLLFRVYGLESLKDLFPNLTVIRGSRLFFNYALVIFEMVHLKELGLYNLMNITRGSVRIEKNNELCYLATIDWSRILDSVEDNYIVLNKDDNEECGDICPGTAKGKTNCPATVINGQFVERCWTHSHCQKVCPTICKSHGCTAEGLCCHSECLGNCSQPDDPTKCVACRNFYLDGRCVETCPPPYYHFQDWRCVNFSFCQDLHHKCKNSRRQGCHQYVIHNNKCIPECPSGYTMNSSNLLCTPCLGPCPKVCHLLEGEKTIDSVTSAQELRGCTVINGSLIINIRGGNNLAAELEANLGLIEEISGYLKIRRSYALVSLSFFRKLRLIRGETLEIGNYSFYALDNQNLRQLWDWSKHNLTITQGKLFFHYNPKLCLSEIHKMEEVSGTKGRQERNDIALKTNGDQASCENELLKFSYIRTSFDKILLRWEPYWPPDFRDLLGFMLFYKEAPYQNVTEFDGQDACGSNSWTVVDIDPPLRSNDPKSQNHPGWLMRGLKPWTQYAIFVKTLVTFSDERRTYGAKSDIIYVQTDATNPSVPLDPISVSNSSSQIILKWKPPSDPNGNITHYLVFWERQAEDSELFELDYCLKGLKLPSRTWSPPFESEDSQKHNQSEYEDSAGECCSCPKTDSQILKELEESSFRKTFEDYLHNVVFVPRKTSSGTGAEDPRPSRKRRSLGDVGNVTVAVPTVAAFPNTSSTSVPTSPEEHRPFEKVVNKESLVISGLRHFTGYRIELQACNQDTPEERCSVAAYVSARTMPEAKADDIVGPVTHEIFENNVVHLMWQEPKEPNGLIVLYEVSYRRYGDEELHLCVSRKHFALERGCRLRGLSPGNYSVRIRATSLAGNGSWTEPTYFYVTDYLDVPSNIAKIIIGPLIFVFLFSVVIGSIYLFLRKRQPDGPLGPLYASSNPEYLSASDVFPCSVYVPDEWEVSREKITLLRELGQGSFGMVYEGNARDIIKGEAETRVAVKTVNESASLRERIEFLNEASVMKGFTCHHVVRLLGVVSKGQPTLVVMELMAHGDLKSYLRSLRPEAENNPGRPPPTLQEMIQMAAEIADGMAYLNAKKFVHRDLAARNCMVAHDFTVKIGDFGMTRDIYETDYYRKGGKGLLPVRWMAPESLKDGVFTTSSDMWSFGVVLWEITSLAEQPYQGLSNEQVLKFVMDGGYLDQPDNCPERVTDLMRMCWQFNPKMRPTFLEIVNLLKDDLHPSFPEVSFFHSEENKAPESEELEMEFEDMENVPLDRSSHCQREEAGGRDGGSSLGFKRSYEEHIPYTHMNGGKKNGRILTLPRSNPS
Summary of the method: (§1)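 Receptor-overexpressing NIH-3T3, 10% FBS, 37 °C; cpd 30 uM–1.5 nM × 2 h; stim IGF-1 30 ng/mL (IGF-1R) or insulin 3 ug/mL (IR), 15 min; lysate DELFIA, Eu anti-pTyr; % of stimulated signal.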

[2] = system: NCI-H929 (multiple myeloma); assay: Inhibition of cell proliferation, CellTiter-Glo, NCI-H929; format: cell-based; settings: Homo sapiens, 72 h
Summary of the method: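 Cells were grown in medium with 10% FBS at 37° C, 5% CO2. Cell number was read as CellTiter-Glo luminescence (cellular ATP), with untreated wells as control.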

[3] = biological target: T2, human IGF-1R (NIH-3T3 cells over expressing human IGF-1R) (Homo sapiens, UniProt P08069); assay: IGF-1R cellular autophosphorylation (DELFIA); format: cell-based; settings: IGF-1 stimulated
T2 construct: expressed in transfected cells; host or cells: NIH-3T3 (mouse fibroblasts)
T2 sequence (P08069 31-1367): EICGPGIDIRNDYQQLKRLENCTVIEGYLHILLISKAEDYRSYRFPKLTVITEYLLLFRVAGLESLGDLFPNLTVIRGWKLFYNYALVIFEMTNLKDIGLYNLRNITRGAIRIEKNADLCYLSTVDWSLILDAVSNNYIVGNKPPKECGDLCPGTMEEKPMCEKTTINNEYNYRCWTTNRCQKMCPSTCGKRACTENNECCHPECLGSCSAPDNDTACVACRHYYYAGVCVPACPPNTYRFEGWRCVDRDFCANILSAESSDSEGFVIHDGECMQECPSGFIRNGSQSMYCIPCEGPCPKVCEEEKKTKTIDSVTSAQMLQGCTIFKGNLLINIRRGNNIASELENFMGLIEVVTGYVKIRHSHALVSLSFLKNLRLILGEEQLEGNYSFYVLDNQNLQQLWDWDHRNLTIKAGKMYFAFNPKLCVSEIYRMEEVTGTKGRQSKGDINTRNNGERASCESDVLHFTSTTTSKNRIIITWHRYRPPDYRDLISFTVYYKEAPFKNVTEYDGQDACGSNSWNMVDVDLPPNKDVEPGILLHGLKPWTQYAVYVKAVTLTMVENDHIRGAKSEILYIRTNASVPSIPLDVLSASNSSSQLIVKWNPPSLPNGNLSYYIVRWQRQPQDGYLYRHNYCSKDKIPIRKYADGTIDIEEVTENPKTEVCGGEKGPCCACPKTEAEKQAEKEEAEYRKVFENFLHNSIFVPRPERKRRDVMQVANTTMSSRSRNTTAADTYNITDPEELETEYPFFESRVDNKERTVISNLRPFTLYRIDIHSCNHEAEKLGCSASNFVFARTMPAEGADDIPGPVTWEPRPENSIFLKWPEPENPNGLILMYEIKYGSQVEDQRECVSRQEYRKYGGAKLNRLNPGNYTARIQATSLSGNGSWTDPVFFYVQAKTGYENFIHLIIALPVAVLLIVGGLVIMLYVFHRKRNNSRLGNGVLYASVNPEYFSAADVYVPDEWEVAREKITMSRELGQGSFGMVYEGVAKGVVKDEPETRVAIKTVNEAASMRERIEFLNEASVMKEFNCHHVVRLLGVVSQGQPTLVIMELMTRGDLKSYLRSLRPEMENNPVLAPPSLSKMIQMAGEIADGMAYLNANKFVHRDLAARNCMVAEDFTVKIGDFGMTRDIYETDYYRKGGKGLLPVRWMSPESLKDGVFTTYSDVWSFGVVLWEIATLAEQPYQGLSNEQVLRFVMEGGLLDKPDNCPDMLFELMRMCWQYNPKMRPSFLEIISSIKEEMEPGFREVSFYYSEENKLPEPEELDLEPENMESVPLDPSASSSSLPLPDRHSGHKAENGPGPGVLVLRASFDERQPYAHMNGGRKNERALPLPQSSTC
Summary of the method: as §1

[4] = system: LISN cell (mouse 3T3 fibroblasts transduced with human IGF-1R) tumors; assay: In vivo efficacy, mice bearing LISN cell tumors; settings: LISN
Method: E. In Vivo Efficacy—Mouse Models
The efficacy of the compounds of Examples 57 and 58 were assessed together in an in vivo efficacy experiment performed on mice bearing LISN cell (mouse 3T3 fibroblasts transduced with human IGF-1R) tumors. Fifty six female nude mice bearing subcutaneous LISN cell tumors were measured for tumor size and body weight and block randomized into seven groups of eight mice with an equal average tumor volume of approximately 200 mm3. Mice were dosed with either vehicle (20% SBE pH3.5), Example 57 or Example 58. The dosing schedules for each compound were based on previous experiments with the compounds and doses chosen to give the highest tumor growth inhibition and a dose response. Example 58 was dosed at 30, 100 and 300 mg/kg QD for 21 days while Example 57 was dosed at 30 mg/kg QD for 21 days, 15 mg/kg BID for 21 days and 30 mg/kg QDx3 days/week for 3 weeks.
The tumors on mice being treated with vehicle grew with the expected exponential growth throughout the 21 day study. […] The lower dose of 30 mg/kg of Example 58 achieved 28% tumor growth inhibition.
The efficacy of the compounds of Examples 237 and 219 were assessed together in an in vivo efficacy experiment performed on mice bearing LISN cell (mouse 3T3 fibroblasts transduced with human IGF-1R) tumors. Sixty four female nude mice bearing subcutaneous LISN cell tumors were measured for tumor size and body weight and block randomized into eight groups of eight mice with an equal average tumor volume of approximately 362 mm^3. Mice were dosed with either vehicle (20% SBE pH3.5), Example 237 or Example 219. The dosing schedules for each compound were based on previous experiments with the compounds and doses chosen to give the highest tumor growth inhibition and a dose response. Example 237 was administered at 30 and 60 mg/kg QD for 21 days and 30 mg/kg BID for 21 days while Example 219 was administered at 50 and 100 mg/kg QD for 21 days, 25 and 50 mg/kg BID for 21 days.
The tumors on mice being treated with vehicle grew with the expected exponential growth throughout the 21 day study. […] The lower dose of 30 mg/kg QD of Example 237 achieved 15% tumor growth inhibition at day 21 (note: 2 animals were euthanized prior to the last measurement). […] This recovered to 3% by the end of dosing and fully recovered after dosing was concluded. […] This recovered fully within 4 days after the completion of dosing.

Structure (SMILES) | pIC50 (COLO205 (colon)) | pIC50 [1] | pIC50 [2] | pIC50 [3] | tumor growth inhibition ([4]; 15 mg/kg BID for 21 days) [%] | body weight loss ([4]; 30 mg/kg QD and 15 mg/kg BID treated groups) | tumor growth inhibition ([4]; 30 mg/kg QD for 21 days) [%] | tumor growth inhibition ([4]; 30 mg/kg QDx3 days/week for 3 weeks) [%] | body weight loss ([4]; 30 mg/kg QDx3 days/week for 3 weeks, over the three consecutive days of dosing, recovered in between doses)
COc1cc(N2CCC(N3CCCCC3)CC2)ccc1Nc1nccc(-c2c(-c3cccc(C(=O)Nc4c(F)cccc4F)c3)nc3ccccn23)n1 [Example 22, 3-[3-(2-{[4-(1,4′-bipiperidin-1′-yl)-2-(methyloxy)phenyl]amino}-4-pyrimidinyl)imidazo[1,2-a]pyridin-2-yl]-N-(2,6-difluorophenyl)benzamide] | 6.00 to 6.60 | > 7.00 | > 6.60 | > 7.00 |  |  |  |  | 
COc1cc(N2CCC(N3CCN(CCF)CC3)CC2)ccc1Nc1nccc(-c2c(-c3cccc(C(=O)Nc4c(F)cccc4F)c3)nc3ccccn23)n1 [Example 57, N-(2,6-difluorophenyl)-3-[3-(2-{[4-{4-[4-(2-fluoroethyl)-1-piperazinyl]-1-piperidinyl}-2-(methyloxy)phenyl]amino}-4-pyrimidinyl)imidazo[1,2-a]pyridin-2-yl]benzamide] | 6.00 to 6.60 | > 7.00 | > 6.60 | > 7.00 | 50 | no body weight loss | 34 | 69 | significant body weight loss
